Positions count from the first letter of the chain named. Where a SMILES comes first, the peptide text is derived from it. [ ]: non-standard residue; d: D form. pT = C[C@@H](OP(=O)(O)O)[C@H](N)C(=O)O
Experiments:
[1] = target: T1, PDK1[R131A] (Homo sapiens, UniProt O15530, R131A); test: PDK1 catalytic activity towards T308tide, activation by peptides, PDK1[R131A]; assay type: biochemical
T1 construct: GST (N); made in house; host or cells: human embryonic kidney 293 cells (pEBG2T vector)
T1 sequence (O15530 1-556 R131A): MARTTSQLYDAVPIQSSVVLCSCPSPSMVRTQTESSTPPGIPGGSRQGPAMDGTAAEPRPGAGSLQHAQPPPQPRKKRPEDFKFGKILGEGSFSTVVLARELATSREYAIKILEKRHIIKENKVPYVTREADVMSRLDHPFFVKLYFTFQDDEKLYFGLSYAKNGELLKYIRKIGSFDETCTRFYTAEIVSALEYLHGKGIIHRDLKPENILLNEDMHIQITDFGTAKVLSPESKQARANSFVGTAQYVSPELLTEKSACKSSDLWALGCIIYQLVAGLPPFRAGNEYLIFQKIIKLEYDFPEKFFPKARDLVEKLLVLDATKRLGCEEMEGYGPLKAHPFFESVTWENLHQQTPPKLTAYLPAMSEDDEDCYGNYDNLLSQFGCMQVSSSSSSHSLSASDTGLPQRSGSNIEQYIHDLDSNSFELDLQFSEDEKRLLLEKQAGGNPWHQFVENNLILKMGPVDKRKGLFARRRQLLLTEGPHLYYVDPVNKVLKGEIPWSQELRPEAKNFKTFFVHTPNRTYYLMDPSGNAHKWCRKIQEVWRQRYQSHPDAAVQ
Description: (§1) C. Activation of the indicated forms of PDK1 by 56K-pHM and S6K-HM. PDK1 activity was measured using the peptide substrate (T308tide) in the presence of the indicated concentrations of 56K-pHM (closed circles) and S6K-HM (open circles) as described in the methods. Assays were performed in triplicate and similar results obtained in 2 separate experiments. The results are the average—SD for a single experiment.
(§2) The ability of wild type and mutant PDK1 to phosphorylate the synthetic peptide T308tide ([…] ([Biondi et al., 2000]) (SEQ ID NO:108) was carried out in 30 μl assays containing 100 ng of wild type or mutant PDK1, 50 mM Tris/HCl pH 7.5, 0.1% 13-mercaptoethanol, 10 mM MgCl2, 100 μM [32γ P]ATP (200 cpm/pmol), 0.5 μM microcystin-LR, 1 mM T308tide in the presence or absence of the indicated concentrations of the 56K-pHM peptide ([…](P)YVAPSV) (SEQ ID NO:104) or 56K-HM. peptide ([…]) (SEQ ID NO:105). After incubation for 10 min at 30° C., 25 μl of the resultant mixture was spotted into P81 phosphocellulose paper (2×2 cm) and the papers washed and analysed as described previously for assays of MAP kinase. Control assays were carried out in parallel in which either PDK1, or peptide substrate were omitted; these values were always less than 5% of the activity measured in the presence of these reagents. One Unit of PDK1 activity was defined as that amount required to catalyse the phosphorylation of 1 nmol of the T308tide in 1 min.

[2] = target: T2, PDK1[Q150A] (Homo sapiens, UniProt O15530, Q150A); test: PDK1 catalytic activity towards T308tide, activation by peptides, PDK1[Q150A]; assay type: biochemical; parameters: made in house
T2 sequence (O15530 1-556 Q150A): T1 sequence (O15530 1-556 R131A) with A131R, Q150A
Description: as §1
as §2, with “One Unit of PDK1 activity was defined as that amount required to catalyse the phosphorylation of 1 nmol of the T308tide in 1 min.” left out

In the case of CC(C)C[C@H](NC(=O)[C@H](Cc1ccccc1)NC(=O)[C@@H](NC(=O)[C@H](CCC(N)=O)NC(=O)[C@H](CC(N)=O)NC(=O)[C@H](C)NC(=O)[C@H](CO)NC(=O)[C@H](CCC(=O)O)NC(=O)[C@@H](N)CO)C(C)C)C(=O)NCC(=O)N[C@@H](Cc1ccccc1)C(=O)N[C@H](C(=O)N[C@@H](Cc1ccc(O)cc1)C(=O)N[C@H](C(=O)N[C@@H](C)C(=O)N1CCC[C@H]1C(=O)N[C@@H](CO)C(=O)N[C@H](C(=O)O)C(C)C)C(C)C)[C@@H](C)OP(=O)(O)O [S6K-pHM] (H-SESANQVFLGF[pT]YVAPSV-OH; N-terminus and C-terminus assumed), the “activation of PDK1[R131A]” value ([1]; peptide 0.3 and 1 mM) was “only moderately further increased”, the “activation of PDK1[R131A]” value ([1]; peptide below 0.1 mM) was “not significantly activated” and the “activation of PDK1[Q150A]” value ([2]; peptide 0.3 and 1 mM) was 2-3 fold. The “activation of PDK1[Q150A]” value ([2]; peptide below 0.1 mM) was “not significantly activated”.

From patent publication US7792665B2, “Method for designing a compound based on the three dimensional structure of phosphoinositide dependent protein kinase 1 (PDK1)” (Medical Research Council, priority 2002, dated 2010)
